Experiment [1] concerns P. aeruginosa PA14. Description: In vivo PA14 murine thigh infection. Particulars: neutropenic CD-1 mice, 24 h post infection; fluorofolin 25 mg kg^−1 subcutaneous and/or SMX 100 mg kg^−1 intraperitoneal at 1 and 12 h; one value per mouse. From the text: For P. aeruginosa thigh infection model and maximum tolerated dose (MTD) studies, care and handling of female 5–6-week-old CD-1 conformed to Institutional Animal Care and Use Committee (IACUC) policies as carried out at the University of North Texas Health Science Center (Fort Worth, Texas) under UNTHSC IACUC-approved protocol nos. IACUC-2021-0003 and IACUC-2020-0039. Rodents were fed either base chow (Envigo) or base diet supplemented with 1.8 g kg^−1 thymidine (Sigma T9250) starting at 2 days before infection. All procedures were conducted in accordance with the UNTHSC IACUC-approved protocol. Animals were housed in rooms undergoing 10–15 air changes per hour. Air provided to the animal rooms was controlled for temperature and humidity and is fully monitored 24 h a day. Air pressure was balanced according to room use. Lighting was controlled in individual rooms by automatic timers with a standard 12 h on, 12 h off cycle.
Female 5–6-week-old CD-1 mice were rendered neutropenic by intraperitoneal cyclophosphamide treatment (Cytoxan) before this study. On day 0, mice were infected intramuscularly with 5.33 log c.f.u. per thigh PA14. Mice were treated subcutaneously with fluorofolin at 1 and 12 h post infection. For co-treatment, mice were treated with SMX intraperitoneally at 1 and 12 h post infection. […] In vivo efficacy was evaluated by the UNTHSC.

The subject of the next experiment is S. epidermidis. In words: Growth with or without TMI supplementation and fluorofolin, S. epidermidis. Format: cell-based, Staphylococcus epidermidis. Conditions: fluorofolin 2X MIC. As to the method:
(§1) Where listed, growth media were prepared according manufacturer recommendations: LB broth and LB broth supplemented with 0.3 mM thymine (BD Biosciences 244610, Alfa Aesar A15879), 0.3 mM methionine (Sigma-Aldrich M9625), 0.3 mM inosine (EMD Millipore 4060), cation-adjusted Mueller–Hinton II broth (CAMHB) (BD 212322) or 0.3 mM thymidine (Sigma-Aldrich T1895), Gutnick minimal media (1.0 g l^−1 K2SO4, 13.5 g l^−1 K2HPO4, 4.7 g l^−1 KH2PO4, 0.1 g l^−1 MgSO4·7H2O, 10 mM NH4Cl as a nitrogen source and 0.4% w/v glucose as a carbon source)[65].
(§2) Extended Data Fig. 3 TMI supplementation can also rescue other species from fluorofolin DHFR inhibition. […] (f) P. aeruginosa PA14 or E. coli lptd4213 treated with fluorofolin 50 μg/mL in the presence or absence of 0.3 mM thymidine. (g) E. coli lptd4213 treated with fluorofolin 50 μg/mL and SMX (78.1 μg/mL) in the presence or absence of 0.3 mM thymidine or 0.3 mM TMI supplementation, Curves represent average optical at 600 nm (OD600) of 2 biological replicates. Means are shown. Source data

In experiment [2] the test system is Salmonella typhimurium CMCC 50115. In words: MIC (WuXi, Mueller–Hinton broth) against S. typhimurium. Conditions: Salmonella enterica, performed by WuXi. The format is cell-based. On the procedure: (§3) Bacterial colonies (4–8) of strains of interest were vortexed in saline and adjusted to an OD600 of 0.2. Strains were diluted 1:200 into CAMHB media in 96-well plates. Antibiotics were serially diluted 1:3 in DMSO, and 1 μl of each dilution was added to bacteria. The plates were incubated for 18–20 h at 37 °C before observation.

The subject of experiment [3] is P. aeruginosa PA14. Description: Colony-forming units counting after antibiotic treatment. Format: cell-based, Pseudomonas aeruginosa. Particulars: for PA14 CFU/mL, Mean: 2× MIC (fluorofolin 6.2, TMP 250, polymixin B 4 μg ml^−1). As to the method:
P. aeruginosa PA14 overnight cultures were diluted 1:100 and grown to exponential phase (OD600 = 0.4–0.6). Cultures were diluted 1:10 and treated with antibiotic. At each time point, 150 μl of culture was removed, serial diluted 1:10 six times and plated onto LB agar plates. Plates were grown overnight at 37 °C, after which visible colonies were counted. C.f.u.s ml^−1 are reported from dilutions in which ~10–100 single colonies were visible.

For experiment [4], the system named is P. aeruginosa PA14. The format is cell-based, Pseudomonas aeruginosa. Conditions: PA14, 4× MIC plates.
The test system of a further experiment is PA14. Description: Checkerboard assay fluorofolin / sulfamethoxazole. Format: cell-based, Pseudomonas aeruginosa. Conditions: for FIC index: PA14, SMX 0.000 ug/mL. As to the method: Cells were seeded in a similar manner as described above for MIC calculations. […] Fractional inhibitory concentrations (FICs) were calculated as [[…], where [fluorofolin] and [SMX] are the concentrations of compounds in a given well, which were divided by the concentration of drug at the MIC for each compound.

The test system of experiment [5] is Pseudomonas aeruginosa PA01. Description: MIC against P. aeruginosa PA01 in LB broth. Particulars: 16 h, 37 °C, OD600. The format is cell-based. As to the method: (§4) Overnight cultures were diluted 1:150 in LB broth and added to a 96-well plate. Antibiotics were serially diluted 1:2 and added to columns of the 96-well plate and grown at 37 °C with continuous shaking. Cell growth was measured using optical density at 600 nm (OD600). MIC assays were performed in either BioTek Synergy HT or Tecan InfiniteM200 Pro microplate readers.

A further experiment concerns K. pneumoniae. Description: Growth with or without TMI supplementation and fluorofolin, K. pneumoniae. The format is cell-based, Klebsiella pneumoniae. Particulars: fluorofolin 2X MIC. As to the method: as §1, §2
The next experiment deals with E. coli MG1655. Description: Growth competition assay, c.f.u. of E. coli MG1655. The format is cell-based, Escherichia coli. Particulars: for E.coli MG1655 CFU/mL: Panel C. On the procedure:
Cultures of each species were grown separately as well as being mixed 1:1. […] The number of colonies on Pseudomonas Selection Agar plates is reported as the c.f.u. ml^−1 of P. aeruginosa. To calculate c.f.u.s ml^−1 of E. coli MG1655, c.f.u.s ml^−1 were determined from LB agar plates and the c.f.u.s ml^−1 of P. aeruginosa were subtracted from these values.

In a further experiment the test system is Escherichia coli MG1655. Description: MIC against E. coli MG1655 in LB broth. Conditions: 16 h, 37 °C, OD600. Format: cell-based. On the procedure:
as §4

For experiment [6], the system named is Escherichia coli lptD4213. Description: MIC against E. coli lptD4213 in LB broth. Format: cell-based. Particulars: LPTD4213, 16 h. As to the method: as §4
Experiment [7] relates to Acinetobacter baumannii ATCC 17978. In words: MIC (WuXi, Mueller–Hinton broth) against A. baumannii ATCC 17978. Particulars: ATCC17978, performed by WuXi. The format is cell-based. As to the method:
as §3

Experiment [8] concerns Enterobacter cloacae ATCC BAA-1143. Description: MIC against E. cloacae in LB broth. Format: cell-based. Conditions: ATCCBAA1143, 16 h. On the procedure: as §4

≈ marks a conversion by molar mass, not a printed value. Where “and” joins values, the source holds several entries; their conditions need not be identical. Identical values can stand only once.

Experimental findings from article PMC11087268, “A folate inhibitor exploits metabolic differences in Pseudomonas aeruginosa for narrow-spectrum targeting” (Nature Microbiology, 2024) are described below.

With `Nc1nc(N)c2c(ccc3c2ccn3Cc2ccnc(F)c2)n1` [fluorofolin], the “PA14 load in thigh” value with P. aeruginosa PA14 [1] is 9.3 log 10(CFU/ mouse) and 9.24 log 10(CFU/ mouse) and 9.05 log 10(CFU/ mouse) and 9.1 log 10(CFU/ mouse). For the same molecule, the “rescue of growth inhibition by TMI supplementation” value in the experiment on S. epidermidis and with K. pneumoniae was “could also be rescued from fluorofolin growth inhibition by TMI supplementation” in each case. For the same molecule, the MIC (as a rule, the lowest concentration found to suppress growth) amounted to 0.03 µg/mL (≈ 0.0973 µM) in [2]; 0.4 µg/mL with PA14 (Pseudomonas aeruginosa, PA14, read-out: MIC of fluorofolin in the presence of SMX); 6.25 µg/mL in experiment [5]; 0.625 µg/mL with Escherichia coli MG1655; 0.02 µg/mL in experiment [6]; 0.8 µg/mL (≈ 2.59 µM) in experiment [7]. The MIC in experiment [8] came to 12.5 µg/mL. Further, the “type of antibacterial activity” value in the experiment with P. aeruginosa PA14 [3] (PA14, rich media) was “bacteriostatic”. The “PA14 CFU/mL, Mean” value with P. aeruginosa PA14 [3] (Time 0 h) worked out at 197000 CFU/mL; in the experiment on P. aeruginosa PA14 [3] (Time 1 h), 211000 CFU/mL; with P. aeruginosa PA14 [3] (Time 2 h), 171000 CFU/mL; in the experiment on P. aeruginosa PA14 [3] (Time 4 h), 206667 CFU/mL. The “resistance frequency compared between antibiotics” value in the experiment on P. aeruginosa PA14 [4] is on record as “significantly lower resistance frequency than meropenem”. The FIC index in the experiment with PA14 (Fluorofolin 3.125 ug/mL) came to 1; in the experiment on PA14 (Fluorofolin 6.25 ug/mL), 2; in the experiment with PA14 (Fluorofolin 12.5 ug/mL), 4; in the experiment on PA14 (Fluorofolin 25 ug/mL), 8. The “growth in co-culture with TMI supplementation” value in the experiment on E. coli MG1655 (PA14 : E. coli MG1655 1:1, 50 μg ml^−1 fluorofolin, selective plating) was “but not E. coli”. In addition, the “E.coli MG1655 CFU/mL” value is 10 CFU/mL in the experiment on E. coli MG1655 (Fluorofolin); 1050000 CFU/mL and 1500000 CFU/mL and 1350000 CFU/mL in the experiment with E. coli MG1655 (Fluorofolin + TMI).
